Assay results from patent US5670492A, “DC-89 derivatives” (priority 1994, dated 1997).
Read-outs that look alike come from different tables or passages of the source.

Assays:
[1] = when used as injections; cited from earlier work
Sarcoma 180 tumor = assay: Therapeutic Effect Against Sarcoma 180 Tumor; assay type: in vivo, male ddY-strain mice; conditions: Mus musculus, Sarcoma-180, iv, 168 h, read-out: T/C
Protocol: Five male ddY-strain mice each weighing 18-20 g were used for each group as test animals, and 5×10^5 Sarcoma 180 tumor cells were implanted at the axilla subcutaneously. One day after the implantation, 0.2 ml of a physiological saline containing Compound (I) at the concentration shown in Table 2 was intravenously administered to each mouse. T/C [T: average tumor volume (mm^3) of the group treated with the test compound, C: average tumor volume (mm^3) of the control group (to which […] of a physiological saline was intravenously administered)] was determined seven days after the implantation.

[2] = Test for Solubility in Water; assay type: physicochemical; conditions: room temperature
Protocol: A sample tube was charged with 0.7 mg of Compound (I), and 30 μl of water were added thereto at room temperature. The mixture was stirred, and the solubility in water was measured. When the compound was not dissolved, 30 μl of water was added thereto successively, and the mixture was stirred. The solubility in water was measured when the compound was dissolved.

ddY-strain male mice = assay: Acute Toxicity; assay type: in vivo; conditions: i.v., mortality at 14 days after administration
Protocol: Compound (I) was intravenously administered to ddY-strain male mice each weighing 20±1 g. MLD (minimum lethal dose) was determined by observing the mortality at 14 days after administration.

HeLaS3 cells = assay: Growth Inhibitory Effect Against HeLaS3 cells; assay type: cell-based
Protocol: HeLaS3 cells were suspended in MEM medium containing 10% calf serum and 2 mM glutamine to a concentration of 2.67×10^4 cells/mi. The cell suspension thus prepared was put into wells of a 24-well culture plate in an amount of 0.75 ml per well. After the cells were incubated in a CO2 incubator overnight at 37° C., Compound (I) which had been appropriately diluted with a culture medium was added to each well in an amount of 0.25 ml.
The cells were further incubated in the CO2 incubator for 72 hours, and the culture supernatant was removed. Then, the cells were dispersed in a solution of trypsin and EDTA and recovered. The number of cells was counted using a cell counter. The concentration (IC50) of Compound (I) at which the growth of the cells is inhibited by 50% was calculated by comparing the number of untreated cells with the number of the cells treated with Compound (I) at known concentrations.

various bacteria = conditions: cited from earlier work
melanoma B-16 = conditions: cited from earlier work

COC(=O)c1c(C)[nH]c2c1C13CC1CN(C(=O)/C=C/c1ccc(OC)cc1)C3=CC2=O (centres unmarked) [(B)]
water-solubility [1]: lack satisfactory water-solubility

COC(=O)c1c(C)[nH]c2c(OC(=O)c3cccnc3)cc3c(c12)C(CBr)CN3C(=O)/C=C/c1ccc(OC)c(N(C)C)c1 (centres unmarked) [Compound 55]
response vs control in vivo at 1 mg/kg (Sarcoma 180 tumor): 28% | solubility [2]: > 18 mg/mL | MLD (minimum lethal dose) (ddY-strain male mice): 1.0 mg/kg | IC50 (HeLaS3 cells; Homo sapiens, HeLa S3, 72 h): 0.43 nM

COC(=O)c1c(C)[nH]c2c(OC(=O)NN3CCN(C)CC3)cc3c(c12)C(CBr)CN3C(=O)/C=C/c1ccc(OC)c(N(C)C)c1 (centres unmarked) [Compound 60]
response vs control in vivo at 4 mg/kg (Sarcoma 180 tumor): 15% | solubility [2]: > 20 mg/mL | MLD (minimum lethal dose) (ddY-strain male mice): > 8.0 mg/kg | IC50 (HeLaS3 cells; Homo sapiens, HeLa S3, 72 h): 0.94 nM

COC(=O)c1c(C)[nH]c2c(OC(=O)NN(C)C)cc3c(c12)C(CBr)CN3C(=O)/C=C/c1ccc(OC)c(N(C)C)c1 (centres unmarked) [Compound 62]
response vs control in vivo at 2 mg/kg (Sarcoma 180 tumor; 2.0 mg/kg, single i.v. one day after s.c. implantation, tumor volume ratio seven days after implantation): 19% | solubility [2]: > 20 mg/mL | MLD (minimum lethal dose) (ddY-strain male mice): 2.0 mg/kg | IC50 (HeLaS3 cells; Homo sapiens, HeLa S3, 72 hours, read-out: IC50): 0.62 nM

CNN(C)C(=O)Oc1cc2c(c3c(C(=O)OC)c(C)[nH]c13)C(CBr)CN2C(=O)/C=C/c1ccc(OC)c(N(C)C)c1 (centres unmarked) [Compound 64]
response vs control in vivo at 1.3 mg/kg (Sarcoma 180 tumor): 26% | solubility [2]: > 15 mg/mL | MLD (minimum lethal dose) (ddY-strain male mice): 2.0 mg/kg | IC50 (HeLaS3 cells; Homo sapiens, HeLa S3, 72 h): 1.1 nM

COC(=O)c1c(C)[nH]c2c(OC(=O)c3ccc(CN4CCN(C)CC4)cc3)cc3c(c12)C(CBr)CN3C(=O)/C=C/c1ccc(OC)c(N(C)C)c1 (centres unmarked) [Compound 66]
response vs control in vivo at 2 mg/kg (Sarcoma 180 tumor): 21% | solubility [2]: > 20 mg/mL | MLD (minimum lethal dose) (ddY-strain male mice): 2.0 mg/kg | IC50 (HeLaS3 cells; Homo sapiens, HeLa S3, 72 h): 1.1 nM

COC(=O)c1c(C)[nH]c2c(OC(=O)NN3CCN(C)CC3)cc3c(c12)C(CCl)CN3C(=O)/C=C/c1cnc(OC)nc1 (centres unmarked) [Compound 69]
response vs control in vivo at 4 mg/kg (Sarcoma 180 tumor): 40% | solubility [2]: > 10 mg/mL | MLD (minimum lethal dose) (ddY-strain male mice): 4.0 mg/kg | IC50 (HeLaS3 cells; Homo sapiens, HeLa S3, 72 h): 1.4 nM

COC(=O)c1c(C)[nH]c2c(OC(=O)NN3CCN(C)CC3)cc3c(c12)C(CBr)CN3C(=O)/C=C/c1cnc(OC)nc1 (centres unmarked) [Compound 72]
response vs control in vivo at 4 mg/kg (Sarcoma 180 tumor): 15% | Solubility in water [2]: > 10 mg/mL | MLD (minimum lethal dose) (ddY-strain male mice): 4.0 mg/kg | IC50 (HeLaS3 cells; 72 hours): 1.6 nM

COC(=O)c1cc2c([nH]1)C(=O)C=C1N(C(=O)c3cc4cc(OC)c(OC)c(OC)c4[nH]3)CC3CC123 (centres unmarked) [DC113]
antibacterial activity (various bacteria): antibacterial activity against various bacteria | antitumor activity (melanoma B-16): anti-tumor activity against melanoma B-16

COC(=O)C1(C)NC2=C(C1=O)C13CC1CN(C(=O)c1cc4cc(OC)c(OC)c(OC)c4[nH]1)C3=CC2=O (centres unmarked) [DC-88A]
antibacterial activity (various bacteria): antibacterial activity against various bacteria | antitumor activity (melanoma B-16): anti-tumor activity against melanoma B-16

COC(=O)C1(C)Nc2c(O)cc3c(c2C1=O)CC(Cl)CN3C(=O)c1cc2cc(OC)c(OC)c(OC)c2[nH]1 (centres unmarked) [DC-89A1]
antibacterial activity (various bacteria): antibacterial activity against various bacteria | antitumor activity (melanoma B-16): antitumor activity against melanoma B-16

COC(=O)C1(C)Nc2c(O)cc3c(c2C1=O)C(CCl)CN3C(=O)c1cc2cc(OC)c(OC)c(OC)c2[nH]1 (centres unmarked) [DC-89A2]
antibacterial activity (various bacteria): antibacterial activity against various bacteria | antitumor activity (melanoma B-16): antitumor activity against melanoma B-16

COC(=O)C1(C)Nc2c(O)cc3c(c2C1=O)CC(Br)CN3C(=O)c1cc2cc(OC)c(OC)c(OC)c2[nH]1 (centres unmarked) [DC-89B1]
antibacterial activity (various bacteria): antibacterial activity against various bacteria | antitumor activity (melanoma B-16): antitumor activity against melanoma B-16

COC(=O)C1(C)Nc2c(O)cc3c(c2C1=O)C(CBr)CN3C(=O)c1cc2cc(OC)c(OC)c(OC)c2[nH]1 (centres unmarked) [DC-89B2]
antibacterial activity (various bacteria): antibacterial activity against various bacteria | antitumor activity (melanoma B-16): antitumor activity against melanoma B-16
